Source: PMC5112673, “A novel pyruvate kinase and its application in lactic acid production under oxygen deprivation in Corynebacterium glutamicum” (BMC Biotechnology, 2016)
Where two headings read alike, the source gives them in different places.

Tested on: T1, Pyk2
T1 construct: full length, pET-28a N-terminal His-tag (removable by thrombin; tagged and cut similarly active), E. coli BL21(DE3), subunit 67,572 Da, homohexamer 430,881 Da by gel filtration
Test: coupled L-lactate dehydrogenase / NADH assay, […] nm, allosteric sigmoidal fit
Format: biochemical, Corynebacterium glutamicum
Conditions: 5 mM MnSO4, 100 mM KCl, 100 mM Tris-HCl pH 7.4, 25°C, no effector, read-out: S 0.5

| Km (2 mM ADP) [mM] | Km (5 mM PEP) [mM] | SMILES |
| --- | --- | --- |
| 4.58 ± 0.74 |  | C=C(OP(=O)(O)O)C(=O)O [PEP] |
|  | 0.33 ± 0.03 | Nc1ncnc2c1ncn2[C@@H]1O[C@H](COP(=O)(O)OP(=O)(O)O)[C@@H](O)[C@H]1O [ADP] |
